Laboratory results published in US20230085307A1, “PYRIDAZINONE COMPOUND AND HERBICIDE” (NISSAN CHEMICAL CORPORATION, priority 2019, published 2023).

Experiments:
Conditions in all cases: foliage application, 320 g/ha
southern crabgrass = test: Test Example 5: herbicidal effect by foliage application, plastic box (Table 20, symbol F); type: in vivo, southern crabgrass (Digitaria ciliaris)
Outline: (§1)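 Post-emergence foliar test in sterilized diluvial soil. Compound applied as water-diluted emulsion at a predetermined rate to 14-day-old plants; evaluation at three weeks.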

lambsquarters = test: Test Example 5: herbicidal effect by foliage application, plastic box (Table 20, symbol O); type: in vivo, lambsquarters (Chenopodium album)
Outline: as §1

wild oat = test: Test Example 5: herbicidal effect by foliage application, plastic box (Table 20, symbol I); type: in vivo, wild oat (Avena fatua)
Outline: as §1

chickweed = test: Test Example 5: herbicidal effect by foliage application, plastic box (Table 20, symbol P); type: in vivo, common chickweed (Stellaria media)
Outline: as §1

velvetleaf = test: Test Example 5: herbicidal effect by foliage application, plastic box (Table 20, symbol M); type: in vivo, velvetleaf (Abutilon theophrasti)
Outline: as §1

redroot pigweed = test: Test Example 5: herbicidal effect by foliage application, plastic box (Table 20, symbol N); type: in vivo, redroot pigweed (Amaranthus retroflexus)
Outline: as §1

false cleavers = test: Test Example 5: herbicidal effect by foliage application, plastic box (Table 20, symbol Q); type: in vivo, false cleavers (Galium spurium)
Text: [Test Example 5] Herbicidal Effect Test by Foliage Application
Sterilized diluvial soil was placed in a plastic box having a length of 21 cm, a width of 13 cm, and a depth of 7 cm. The seeds of each of southern crabgrass, green foxtail, barnyard grass, wild oat, blackgrass, Italian ryegrass, windgrass, velvetleaf, redroot pigweed, lambsquarters, chickweed, false cleavers, persian speedwell, corn, soybean, rice, wheat, beet, and rapeseed were sowed in a spot-like manner and covered with the soil having a thickness of about 1.5 cm. Thereafter, the plants were grown in a greenhouse at 25° C. to 30° C. After 14-day growth of the plants, the emulsion agent of the compound of the present invention prepared according to Formulation Example 2 was diluted with water so as to achieve a predetermined herbicide amount, and the diluted emulsion agent was uniformly applied to a foliage part with a small-sized spray. Three weeks after the herbicide application, the effect of the herbicide on each plant was evaluated according to the criteria of Test Example 1.

green foxtail = test: Test Example 5: herbicidal effect by foliage application, plastic box (Table 20, symbol G); type: in vivo, green foxtail (Setaria viridis)
Outline: as §1

persian speedwell = test: Test Example 5: herbicidal effect by foliage application, plastic box (Table 20, symbol R); type: in vivo, Persian speedwell (Veronica persica)
Outline: as §1

windgrass = test: Test Example 5: herbicidal effect by foliage application, plastic box (Table 20, symbol L); type: in vivo, windgrass (Apera spica-venti)
Outline: as §1

Italian ryegrass = test: Test Example 5: herbicidal effect by foliage application, plastic box (Table 20, symbol K); type: in vivo, Italian ryegrass (Lolium multiflorum)
Outline: as §1

blackgrass = test: Test Example 5: herbicidal effect by foliage application, plastic box (Table 20, symbol J); type: in vivo, blackgrass (Alopecurus myosuroides)
Outline: as §1

barnyard grass = test: Test Example 5: herbicidal effect by foliage application, plastic box (Table 20, symbol H); type: in vivo, barnyard grass (Echinochloa crus-galli)
Outline: as §1

[1] = evaluated three weeks after application

COc1cc(F)ccc1-c1sc2ccc(-c3ccc(OC(C)C)cc3)cc2c1-c1c(O)c(C)nn(C)c1=O [2-167]
herbicidal effect on F: southern crabgrass (criteria 0-5) (southern crabgrass; [1]): 0 (Herbicidal rate of 5% or less (almost no effect)) | herbicidal effect on O: lambsquarters (criteria 0-5) (lambsquarters; [1]): 0 (Herbicidal rate of 5% or less (almost no effect)) | herbicidal effect on I: wild oat (criteria 0-5) (wild oat; [1]): 0 (Herbicidal rate of 5% or less (almost no effect)) | herbicidal effect on P: chickweed (criteria 0-5) (chickweed; [1]): 0 (Herbicidal rate of 5% or less (almost no effect)) | herbicidal effect on M: velvetleaf (criteria 0-5) (velvetleaf; [1]): 0 (Herbicidal rate of 5% or less (almost no effect)) | herbicidal effect on N: redroot pigweed (criteria 0-5) (redroot pigweed; [1]): 3 (Herbicidal rate of 40% or more and less than 70%) | herbicidal effect on Q: false cleavers (criteria 0-5) (false cleavers; [1]): 0 (Herbicidal rate of 5% or less (almost no effect)) | herbicidal effect on G: green foxtail (criteria 0-5) (green foxtail; [1]): 0 (Herbicidal rate of 5% or less (almost no effect)) | herbicidal effect on R: persian speedwell (criteria 0-5) (persian speedwell; [1]): 0 (Herbicidal rate of 5% or less (almost no effect)) | herbicidal effect on L: windgrass (criteria 0-5) (windgrass; [1]): 0 (Herbicidal rate of 5% or less (almost no effect)) | herbicidal effect on K: Italian ryegrass (criteria 0-5) (Italian ryegrass; [1]): 0 (Herbicidal rate of 5% or less (almost no effect)) | herbicidal effect on J: blackgrass (criteria 0-5) (blackgrass; [1]): 0 (Herbicidal rate of 5% or less (almost no effect)) | herbicidal effect on H: barnyard grass (criteria 0-5) (barnyard grass; [1]): 0 (Herbicidal rate of 5% or less (almost no effect))

CCCC(=O)Oc1c(C)nn(C)c(=O)c1-c1c(-c2ccc(OC)cc2)sc2cc(C)ccc12 [3-052]
F: southern crabgrass, herbicidal effect grade (southern crabgrass; three weeks after application): 0 (Herbicidal rate of 5% or less (almost no effect)) | O: lambsquarters, herbicidal effect grade (lambsquarters; three weeks after application): 0 (Herbicidal rate of 5% or less (almost no effect)) | I: wild oat, herbicidal effect grade (wild oat; three weeks after application): 0 (Herbicidal rate of 5% or less (almost no effect)) | P: chickweed, herbicidal effect grade (chickweed; three weeks after application): 5 (Herbicidal rate of 90% or more (almost completely withered)) | M: velvetleaf, herbicidal effect grade (velvetleaf; three weeks after application): 3 (Herbicidal rate of 40% or more and less than 70%) | N: redroot pigweed, herbicidal effect grade (redroot pigweed; three weeks after application): 0 (Herbicidal rate of 5% or less (almost no effect)) | Q: false cleavers, herbicidal effect grade (false cleavers; three weeks after application): 2 (Herbicidal rate of 20% or more and less than 40%) | G: green foxtail, herbicidal effect grade (green foxtail; three weeks after application): 3 (Herbicidal rate of 40% or more and less than 70%) | R: persian speedwell, herbicidal effect grade (persian speedwell; three weeks after application): 5 (Herbicidal rate of 90% or more (almost completely withered)) | L: windgrass, herbicidal effect grade (windgrass; three weeks after application): 0 (Herbicidal rate of 5% or less (almost no effect)) | K: Italian ryegrass, herbicidal effect grade (Italian ryegrass; three weeks after application): 0 (Herbicidal rate of 5% or less (almost no effect)) | J: blackgrass, herbicidal effect grade (blackgrass; three weeks after application): 0 (Herbicidal rate of 5% or less (almost no effect)) | H: barnyard grass, herbicidal effect grade (barnyard grass; three weeks after application): 0 (Herbicidal rate of 5% or less (almost no effect))
